The source of these data is patent US20250228824A1, “COMPOSITIONS AND METHODS FOR INHIBITION OF ITO AS TREATMENT FOR THE J WAVE SYNDROMES AND HYPOTHERMIA” (Lankenau Institute for Medical Research, priority 2021, published 2025).

Holding throughout (type): cell-based
In one experiment the test system is CaV1.2 (ICa). Put plainly: Whole-cell patch clamp of ICa in canine ventricular myocytes. Particulars: 10 μM; at 0 mV; control −5.13+0.77; shift not statistically significant. The method, then:
(§1) Single myocytes were isolated from coronary-perfused canine right or left ventricular wedge preparations via enzymatic dissociation. Briefly, the wedge preparations were coronary perfused with nominally Ca^+2-free Tyrode's solution for a period of 15 min. They were then subjected to enzymatic digestion in nominally Ca^2+-free solution supplemented with 0.6 mg/ml collagenase (type II; Worthington) and 0.075 mg/ml protease (type XIV; Sigma) for 25-35 min. The wedge preparation was then perfused for 15 min with a taurine buffer solution containing (in mM): 108 NaCl, 10 HEPES, 11 D-glucose, 4 KCl, 1.2 MgSO4, 1.2 NaH2PO4, 50 taurine and 0.025 CaCl2. pH was adjusted to 7.4 using NaOH. After perfusion, thin slices of tissue were cut from the epicardial surface to obtain single epicardial cells as previously described.^6
ICa was measured in canine ventricular myocytes at 37° C. ICa was elicited by application of 300 ms steps from −50 to +40 mV. Extended protocols were avoided to prevent current rundown. Internal solution contained (in mM): 120 CsCl, 1 MgCl2, 10 EGTA, 5 Mg-ATP, 10 HEPES, 5 CaCl2. pH was adjusted to 7.2 with CsOH. External solution contained (in mM): 140 NaCl, 10 HEPES, 10 D-glucose, 4 KCl, 1 MgCl2, 2 CaCl2, 2 4-AP and 0.1 BaCl2.

The target in the next experiment is T1, KV4.3 (Ito) (Canis lupus familiaris, UniProt A0A8I3NA05).
T1 sequence (A0A8I3NA05 1-655): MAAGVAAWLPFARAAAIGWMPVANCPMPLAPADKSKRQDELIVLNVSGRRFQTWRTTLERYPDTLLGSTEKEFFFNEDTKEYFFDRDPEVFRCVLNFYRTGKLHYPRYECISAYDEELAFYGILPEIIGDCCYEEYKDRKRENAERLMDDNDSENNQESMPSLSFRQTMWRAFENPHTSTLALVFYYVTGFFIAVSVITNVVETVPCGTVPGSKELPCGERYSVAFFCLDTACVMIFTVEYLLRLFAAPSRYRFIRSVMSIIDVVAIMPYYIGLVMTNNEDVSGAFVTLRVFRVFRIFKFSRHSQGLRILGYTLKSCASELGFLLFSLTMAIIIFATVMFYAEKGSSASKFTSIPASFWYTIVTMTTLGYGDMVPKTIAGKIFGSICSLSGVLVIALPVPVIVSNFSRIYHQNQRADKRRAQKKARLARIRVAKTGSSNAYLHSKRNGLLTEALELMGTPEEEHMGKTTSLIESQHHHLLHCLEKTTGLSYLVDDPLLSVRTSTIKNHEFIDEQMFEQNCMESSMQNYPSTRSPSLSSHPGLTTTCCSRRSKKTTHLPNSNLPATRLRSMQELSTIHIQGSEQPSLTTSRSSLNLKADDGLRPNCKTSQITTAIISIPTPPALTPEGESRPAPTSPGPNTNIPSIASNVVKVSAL
Put plainly: Whole-cell patch clamp of Ito in dissociated canine ventricular epicardial myocytes. The method, then:
as §1
(§2) Ito and APs were measured in isolated RV or LV myocytes. APs were measured in the current-clamp mode in the whole-cell configuration. APs were initiated using intracellular current injection and recorded continuously by means of Clampex software (Axon Instruments/Molecular Devices) at a sampling frequency of […]. Ito was measured using the Axopatch 200B-2 amplifier in V-Clamp mode.
Ito was recorded in isolated ventricular epicardial cells at 37° C. using whole-cell patch clamp techniques. Ito was elicited using a series of 350 ms voltage steps between −50 mV and +40 mV from a holding potential of −90 mV. A 15 ms prepulse to −20 mV was used to discharge the sodium current. Interpulse interval was 50 ms. The amplitude of Ito was determined by subtracting […] at the end of the pulse. The total charge carried by Ito was determined by calculating the area under the Ito current waveform. The extracellular solution contained (in mM): 140 NaCl, 4 KCl, 1.8 CaCl2, 1.2 MgCl2, 10 HEPES, and 10 glucose, pH 7.4 (adjusted with NaOH). The intracellular solution contained (in mM): 120 KCl, 1.5 MgCl2, 10 HEPES, 0.5 EGTA, 0.01 CaCl2, 5 MgATP, pH 7.2 (adjusted with NaOH). Following baseline measurements, recordings was repeated during exposure to AR-787.

In experiment [1] the test system is canine right ventricular epicardial myocytes. The experiment in a line: Action potential recording (current clamp) in canine RV epicardial myocytes. Particulars: 10 μM. The method, then:
as §1, §2

The structures appear in SMILES notation.

With `Cc1nc(-n2cccc2)sc1C(=O)N=c1[nH]c2ccccc2[nH]1` [AR-787, N-(1H-benzimidazol-2-yl)-4-methyl-2-pyrrol-1-yl-thiazole-5-carboxamide], the ICa peak density in the experiment on CaV1.2 (ICa) is −6.95+1.88 pA/pF. The inhibition at 1 µM at KV4.3 (Ito) (1 μM, at +20 mV, 37° C., read-out: reduction of Ito density) came to 34%. For the same compound, on KV4.3 (Ito) (10 μM, at +20 mV, 37° C., read-out: reduction of Ito density), the inhibition at 10 µM was determined as 68%. The inhibition at 50 µM on KV4.3 (Ito) (50 μM, at +20 mV, 37° C., read-out: reduction of Ito density) was 85.2%. The IC50 at KV4.3 (Ito) (estimated, read-out: IC50 for Ito inhibition) is ~8 µM. The “Action potential duration (APD)” value in experiment [1] is listed as “tendency to abbreviate but this effect was not statistically significant”. In addition, in experiment [1] (0.5 Hz), the “effect on AP notch” value is “significantly suppressed the AP notch”.
